Data as given in patent US20250170183A1, “METHOD FOR ENRICHING MUSE CELLS AND OBTAINING EXOSOMES, MICROVESICLES OR THE SECRETOME THEREFROM” (priority 2022, published 2025).

Tested on: Carrageenan-induced paw edema
Assay: Carrageenan-induced paw edema model
Type: in vivo, C57BL/6 mice
Conditions: single i.p. dose, 1.5 hours after administration; FIG. 5
Protocol: In order to assess the anti-inflammatory effect of the Muse cell derived EVs, various EV fractions were analyzed for anti-inflammatory efficacy using the paw edema model [16].
In our initial experiment, fifty-five female C57BL/6 mice (Charles River, Eastern Europe) were randomly assigned to one of five treatment groups: • (1) (−) Control (PBS) • (2) (+) Control (Dexamethasone: 20-30 mg/kg) • (3) EV100 (1, 10, or 100 billion EVs) • (4) EV500 (1, 10, or 100 billion EVs) • (5) Muse cell enriched culture (100K, 1 million, or 10 million cells)
Paw edema was induced in each animal by intra-plantar injection of 20 μl of a 1% (w/v) aqueous Carrageenan solution (SIGMA Aldrich) into the right hind paw.
Thirty minutes after the carrageenan injection, each animal received one dose of the control agent (treatment groups 1-2) or experimental agents (treatment groups 3-5) according to the respective assigned treatment group. The agent was administered by intra peritoneal (i.p.) injection. PBS was also used to resuspend EV100 and EV500 samples.
The intensity of the edema development and/or the amelioration thereof was assessed by measuring the paw width (the distance from one outer finger to the opposite outer finger) or paw thickness of the treated paw prior to treatment administration, and 2 h, 24 h, 48 h, and 72 h after administration of the control and experimental agents. […]

With `C[C@@H]1C[C@H]2[C@@H]3CCC4=CC(=O)C=C[C@]4(C)[C@@]3(F)[C@@H](O)C[C@]2(C)[C@@]1(O)C(=O)CO` [dexamethasone] the “paw thickness, immediate response” value was “no effect”.
